The text below walks through data of patent US8916561B2, “Substituted quinoxaline compounds for the inhibition of PASK” (BioEnergenix, LLC, priority 2011, dated 2014).

pIC50: −log10 of the molar value.

Common to all, as to type: biochemical
One assay has as its target T1, PASK (Invitrogen) (Homo sapiens, UniProt Q96RG2).
T1 construct: IC50 Kinase Domain; purchased Invitrogen
The experiment in a line: PAS Kinase FRET Assay. The settings on record: TR-FRET (665 nm/615 nm), Ulight-peptide substrate; read-out: IC50 Kinase Domain. The text has this: The aim of the FRET assay is to determine the inhibition potential of test compounds on targeted kinase. This assay platform provides a homogenous screening method for measuring kinase activity by quantitating the amount of phospho-substrate in solution following a kinase reaction.
In the presence of kinase and ATP, the Ulight-peptide is phosphorylated and captured by an anti-phospho-substrate antibody, which brings the Eu chelate donor and Ulight acceptor dyes into close proximity. Upon excitation at 340 nm, the Eu chelate transfers its energy to the Ulight dye, resulting in a fluorescent light emission at 665 nm.
Titration of kinase at 1 mM ATP was achieved via the following protocol. After making serial three-fold dilutions of PASK (Invitrogen) in reaction buffer across the plate; 5 μl of kinase dilution and 5 μl substrate/ATP mix were added to the wells of the white Optiplate-384 (PerkinElmer). The contents of the plate were incubated at RT for 1 h. The reaction was stopped by adding 5 μl of stop solution to each test well followed by mixing and incubation at RT for 10 minutes. 5 μl of detection mix (detection antibody diluted in detection butler) was added; the contents of the plate were mixed and then incubated in the dark for 1 hour at RT. The signal was recorded at TR-FRET mode (665 nm/615 nm), The results were graphed to calculate the EC50.
Titration of ATP at the EC50 concentration of kinase to determine ATP Km,app. was performed using the following method. After making serial dilutions of ATP (Invitrogen), 5 μl of ATP dilution and 5 μl substrate/kinase mix were added to the wells of the white Optiplate-384 (PerkinElmer). The contents of the plate were and incubated at RT for 1 h. The reaction was stopped by adding 5 μl of stop solution to each test well followed by mixing and incubation at RT for 10 minutes. 5 μl of detection mix (detection antibody diluted in detection buffer) was added; the contents of the plate were mixed and then incubated in the dark for 1 hour at RT. The signal was recorded at TR-FRET mode (665 nm/615 nm). The results were graphed to calculate the EC50 as the ATP Km,app.
Compound screening was done via the following method. 10 mM stock solution of test compound in DMSO was prepared by dissolving test compound in DMSO at RT for 1 hour, and then sonicating at 100% output for 8 minutes. If compound is not soluble under this condition, it was diluted to 3 mM. Kinase reaction buffer was prepared containing 10 mM MgCl2, 50 mM HEPES, 1 EGTA, 0.01% TWEEN-20, 2 mM WT. Serial dilutions of the test compounds were prepared at 4× final assay concentrations using Freedom EVO200® dispensing system as follows: 12×10^−5M, 4×10^−5 M, 1.33×10^−5M, 4.44×10^−6 M. 1.48×10^−6 M, 4.92×10^−7 M, 1.65×10^−7 M, […], 1.82×10^−8 M, 6.09×10^−9, 2.03×10^−9 M. Test compounds (2.5 μl at 4× the final assay concentration) was added to wells using Freedom EVO200® dispensing system. As a positive control, 2.5 μl of positive compound was added to assay wells, and 2.5 μl of DMSO to assay wells as vehicle control. Kinase solution was prepared in reaction buffer at 2× final assay concentration. Kinase solution (5 μl) was added to each well of the assay plate. The substrate and ATP solution was prepared in kinase reaction buffer at 4× final assay concentration. The kinase reaction was started by adding 2.5 μl of substrate+ATP mix solution to each well of the assay plate. The plate is mixed on a plate shaker; then covered and allowed to react for 2 hours in the dark at 25° C. without shaking. The reaction was stopped by adding 5 μl of stop solution to each test well followed by mixing and incubation at RT for 10 minutes in the dark. 5 μl of detection mix (detection antibody diluted in detection buffer) was added; the contents of the plate were mixed and then incubated in the dark for 1 hour at RT. The signal was recorded at TR-FRET mode (665 nm/615 nm).

The next assay has as its target hPASK (Homo sapiens, UniProt Q96RG2). The experiment in a line: PAS Kinase Luminescence Assay (Kinase-Glo). Also noted: IC50 Kinase Domain; host or cells: insect cells. The following applies: MBP substrate, read-out: IC50 Kinase Domain. As to the method: One assay for purified hPASK activity utilizes the Kinase-Glo Luminescent Kinase Assay (Promega), which quantifies the amount of ATP remaining in solution following kinase reaction. The assay is carried out in a 96-well plate format and is performed by adding a volume of Kinase-Glo Reagent (Promega, catalog #V3771) equal to the volume of solution in the well of a completed kinase reaction. Kinase-Glo reagent contains Luciferase and its substrate. After addition to a kinase reaction it allows to measure luminescence. The amount of ATP left in solution at the time of Kinase-Glo Plus addition is directly proportional to the luminescence that is measured in each well, and inversely correlated with kinase activity.
Purified hPASK from insect cells (0.02 μg) is added to a 50 μL reaction mix containing 40 mM HEPES (pH 7.0), 100 mM KCl, 5 mM MgCl2, 1 mM DTT and 1 μg of MBP protein. Inhibitory compounds are then added and the mixture is incubated for 10 min at 25° C. before adding 5 μL of ATP (at desired concentration). The reaction is allowed to proceed at 25° C. for 1 hour before adding 50 μL of Kinase-Glo reagent. The luminescence is measured as soon as 10 minutes after Kinase-Glo reagent is added.

In a further assay the target is T2, PASK (UniProt #Q96RG2; human recombinant N-terminal GST tagged construct, residues 879-1323) (Homo sapiens, UniProt Q96RG2).
T2 construct: human recombinant N-terminal GST tagged construct, residues 879-1323; GST (N); host or cells: insect cells
The experiment in a line: PASK ATP Radiochemical Assay. The following applies: 33P-ATP radiochemical assay, Myelin Basic Protein substrate; read-out: IC50 Kinase Domain. The protocol: Purified PASK (UniProt #Q96RG2; human recombinant N-terminal GST tagged construct, residues 879-1323) from insect cells (final concentration 5 nM) is added to freshly prepared Base Reaction Buffer containing 20 mM HEPES (pH 7.5), 10 mM MgCl2, 1 mM EGTA, 0.02% Brij35, 0.02 mg/ml BSA, 0.1 mM Na3VO4, 2 mM DTT, 1% DMSO and Myelin Basic Protein (20 μM final). Test compounds in DMSO are then added and the mixture, followed by delivery of ^33P-ATP (specific activity 0.01 μCi/μl final) to initiate the reaction. The kinase reaction is incubated for 120 min at room temperature. The entire reaction mixture is washed through onto a P81 Phosphocellulose paper and washed three times for 10 minutes in 75 mM phosphoric acid and once in methanol prior to drying and scintillation counting.

Sequence of hPASK (Q96RG2 999-1251 limits assumed): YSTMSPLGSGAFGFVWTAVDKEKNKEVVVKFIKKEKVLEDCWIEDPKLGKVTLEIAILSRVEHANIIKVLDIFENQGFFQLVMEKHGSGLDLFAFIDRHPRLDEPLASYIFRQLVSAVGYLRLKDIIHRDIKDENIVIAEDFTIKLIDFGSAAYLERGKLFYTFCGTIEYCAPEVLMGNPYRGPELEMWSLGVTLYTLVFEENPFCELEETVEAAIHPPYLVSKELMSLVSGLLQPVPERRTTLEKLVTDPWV
T1 sequence (Q96RG2 999-1251 limits assumed): as above
T2 sequence (Q96RG2 879-1323, stated change not applied): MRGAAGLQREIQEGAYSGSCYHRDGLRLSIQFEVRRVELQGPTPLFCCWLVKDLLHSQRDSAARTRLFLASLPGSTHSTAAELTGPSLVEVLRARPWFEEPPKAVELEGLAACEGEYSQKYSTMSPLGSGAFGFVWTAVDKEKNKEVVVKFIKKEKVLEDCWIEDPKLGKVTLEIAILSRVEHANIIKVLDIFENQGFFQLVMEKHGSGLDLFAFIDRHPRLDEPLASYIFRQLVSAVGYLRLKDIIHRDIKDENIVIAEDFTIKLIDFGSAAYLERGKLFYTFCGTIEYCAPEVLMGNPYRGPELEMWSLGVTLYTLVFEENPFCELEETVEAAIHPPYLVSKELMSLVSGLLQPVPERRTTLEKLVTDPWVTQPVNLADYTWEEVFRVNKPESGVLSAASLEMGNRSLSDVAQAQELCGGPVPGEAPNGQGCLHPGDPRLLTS

For `COc1ccc(-c2nc3ccc(S(=O)(=O)O)cc3nc2-c2ccc(OC)cc2)cc1` [Example 38, 2,3-Bis(4-methoxyphenyl)quinoxaline-6-sulfonic acid], the pIC50 on PASK (Invitrogen) is at least 5.00.

Take `CC(C)N(C)c1nc2cc(-c3nnn[nH]3)ccc2nc1-c1ccc2[nH]ncc2c1` [Example 31, 3-(1H-Indazol-5-yl)-N-methyl-N-(propan-2-yl)-7-(1H-tetrazol-5-yl)quinoxalin-2-amine]: the pIC50 on PASK (Invitrogen) was at least 5.00.

Take `CNS(=O)(=O)c1ccc2nc(-c3ccc(OC)cc3)c(-c3ccc(OC)cc3)nc2c1` [Example 36, 2,3-Bis(4-methoxyphenyl)-N-methylquinoxaline-6-sulfonamide]: the pIC50 on hPASK is under 5.00.

For the molecule `CCc1ccc(-c2nc3ccc(-c4nnn[nH]4)cc3nc2-c2ccc(CC)cc2)cc1` [Example 27, 2,3-Bis(4-ethylphenyl)-6-(1H-tetrazol-5-yl)quinoxaline], the pIC50 at PASK was at least 5.00.

As to `CC[C@@H](C)N(C)c1nc2cc(-c3nnn[nH]3)ccc2nc1-c1ccc(F)cc1` [Example 30, (R)—N-sec-Butyl-3-(4-fluorophenyl)-N-methyl-7-(1H-tetrazol-5-yl)quinoxalin-2-amine], the negative-log IC50 (pIC50) on PASK (Invitrogen) is at least 5.00.

For `Fc1ccc(-c2nc3ccc(-c4nnn[nH]4)cc3nc2-c2ccc(F)cc2)cc1` [Example 25, 2,3-Bis(4-fluorophenyl)-6-(1H-tetrazol-5-yl) quinoxaline], at PASK, the negative logarithm of the IC50 (pIC50) is at least 5.00.

Consider `CC(C)N(C)c1nc2cc(-c3nnn[nH]3)ccc2nc1-c1cc2cc(F)ccc2o1` [Example 33, 3-(5-Fluorobenzofuran-2-yl)-N-methyl-N-(propan-2-yl)-7-(1H-tetrazol-5-yl)quinoxalin-2-amine], for which the negative logarithm of the IC50 (pIC50) on PASK (Invitrogen) is at least 5.00.

For `CC(C)N(C)c1nc2cc(-c3nn[nH]n3)ccc2nc1-c1ccc(F)cc1` [Example 28, 3-(4-Fluorophenyl)-N-isopropyl-N-methyl-7-(2H-tetrazol-5-yl)quinoxalin-2-amine], the negative logarithm of the IC50 (pIC50) on PASK and at PASK (Invitrogen) was at least 5.00 in each case.

For `COc1ccc(-c2nc3ccc(S(N)(=O)=O)cc3nc2-c2ccc(OC)cc2)cc1` [Example 35, 2,3-Bis(4-methoxyphenyl)quinoxaline-6-sulfonamide], the pIC50 on hPASK is at least 5.00.

`Cc1cc2cc(-c3nc4ccc(-c5nnn[nH]5)cc4nc3N(C)C(C)C)ccc2[nH]1` [Example 32, N-Isopropyl-N-methyl-3-(2-methyl-1H-indol-5-yl)-7-(1H-tetrazol-5-yl)quinoxalin-2-amine]: the pIC50 at PASK and on PASK (Invitrogen) was at least 5.00 throughout.

`Cc1[nH]c2ccc(-c3nc4ccc(-c5nnn[nH]5)cc4nc3N(C)C(C)C)cc2c1C(=O)C(F)(F)F` [Example 24, 2,2,2-Trifluoro-1-(5-(3-(isopropyl(methyl)amino)-6-(1H-tetrazol-5-yl)quinoxalin-2-yl)-2-methyl-1H-indol-3-yl)ethanone]: on PASK (Invitrogen), the negative-log IC50 (pIC50) was at least 5.00.

In the case of `COc1ccc(-c2nc3ccc(S(=O)(=O)N4CCOCC4)cc3nc2-c2ccc(OC)cc2)cc1` [Example 37, 4-(2,3-Bis(4-methoxyphenyl)quinoxalin-6-ylsulfonyl)morpholine], the pIC50 on hPASK is at least 5.00.

`COc1ccc(-c2nc3ccc(NS(C)(=O)=O)cc3nc2-c2ccc(OC)cc2)cc1` [Example 34, N-(2,3-Bis(4-methoxyphenyl)quinoxalin-6-yl)methanesulfonamide]: the pIC50 at PASK and on hPASK was at least 5.00 each time.

With `COc1ccc(-c2nc3ccc(-c4nnn[nH]4)cc3nc2-c2ccc(OC)cc2)cc1` [Example 26, 2,3-Bis(4-methoxyphenyl)-6-(1H-tetrazol-5-yl)quinoxaline], the pIC50 on PASK and on PASK (Invitrogen) was at least 5.00 each time.

Take `C[C@H]1CCCN1c1nc2cc(-c3nn[nH]n3)ccc2nc1-c1ccc(F)cc1` [Example 29, (S)-2-(4-Fluorophenyl)-3-(2-methylpyrrolidin-1-yl)-6-(2H-tetrazol-5-yl)quinoxaline]: the negative logarithm of the IC50 (pIC50) at PASK and on PASK (Invitrogen) was at least 5.00 each time.
